Reference: patent publication US20170072024A1, “ANTIMICROBIAL COMPOSITION COMPRISING A CARBOHYDRATE, GLUCOSE OXIDASE AND ZINC OXIDE” (MELIPHARM, priority 2014, published 2017)

How the values were obtained:
S. aureus = assay: Bacterial proliferation test, 96 well microplate (OD 450 nm, 24 h); assay type: cell-based; conditions: positive control = 100% proliferation
Description: (§1) The microbial strains used for the tests are the following bacteria: • P. aeruginosa • S. aureus The tests were conducted on microplates to evaluate the MIC (Minimum Inhibitory Concentration). […] Each well is inoculated with 50 μL of bacterial suspension to be tested in a Muller-Hinton (MH) broth+150 μL of diluted test product solution. […] Each specimen is tested in triplicate. The optical densities (OD) are read a first time at time 0 (T0) at 450 nm. The plates are then incubated for 24 h at 37° C. with agitation. At the end of incubation, the OD is measured again at 450 nm (T24). The proliferation percentage is calculated as follows: Proliferation=(DOT24−DOT0)/(DOT24Control+−DOT0Control+)

P. aeruginosa = assay: as above; assay type: cell-based; conditions: positive control = 100% proliferation
Description: as §1

Compound	proliferation percentage of S. aureus (S. aureus; formula at 1.5% (v/v)) [%]	proliferation percentage of S. aureus (S. aureus; formula at 3% (v/v)) [%]	proliferation percentage of S. aureus (S. aureus; formula at 6% (v/v)) [%]	proliferation percentage of S. aureus (S. aureus; formula at 9% (v/v)) [%]	proliferation percentage of P aeruginosa (P. aeruginosa; formula at 1.5% (v/v)) [%]	proliferation percentage of P aeruginosa (P. aeruginosa; formula at 3% (v/v)) [%]	proliferation percentage of P aeruginosa (P. aeruginosa; formula at 6% (v/v)) [%]	proliferation percentage of P aeruginosa (P. aeruginosa; formula at 9% (v/v)) [%]
O=C[C@H](O)[C@@H](O)[C@H](O)[C@H](O)CO [Formula 9, glucose]	96	86	83	72	100	206	206	113
glucose oxidase [Formula 8]	81	72	54	46	96	96	91	86
